Reference: ChEMBL document CHEMBL3217686, “A new route to indoles via in situ desilylationSonogashira strategy: identification of novel small molecules as potential anti-tuberculosis agents” (Medchemcomm, 2011)

How the values were obtained:
[1] = (§1) Inhibition of Mycobacterium tuberculosis chorismate mutase expressed in Escherichia coli BL21 (DE3) assessed as conversion of chorismate to prephenate after 5 mins
[2] = system: Mycobacterium tuberculosis; experiment: Inhibition of Mycobacterium tuberculosis chorismate mutase expressed in Escherichia coli BL21 (DE3) assessed as conversion of chorismate to prephenate at 50 uM after 5 mins
[3] = system: Mycobacterium tuberculosis; experiment: as §1

SMILES | IC50 [1] | inhibition [2] | inhibition [3]
COc1ccc(CCNc2c([N+](=O)[O-])cc(C(=O)O)cc2S(N)(=O)=O)cc1OC | < 10 µM | – | –
CC(=O)c1ccc(NS(C)(=O)=O)c(-c2cc3cc(C(C)=O)ccc3n2S(C)(=O)=O)c1 | – | 30% | –
Cc1ccc(S(=O)(=O)Nc2ccc(Cl)cc2-c2cc3cc(Cl)ccc3n2S(=O)(=O)c2ccc(C)cc2)cc1 | – | 10% | –
CS(=O)(=O)Nc1ccc(C#N)cc1-c1cc2cc(C#N)ccc2n1S(C)(=O)=O | – | 20% | –
Cc1ccc(S(=O)(=O)Nc2ccc(C(F)(F)F)cc2-c2cc3cc(C(F)(F)F)ccc3n2S(=O)(=O)c2ccc(C)cc2)cc1 | – | 12% | –
Cc1ccc(S(=O)(=O)Nc2ccc(C)cc2-c2cc3cc(C)ccc3n2S(=O)(=O)c2ccc(C)cc2)cc1 | – | 15% | –
COc1ccc(NS(C)(=O)=O)c(-c2cc3cc(OC)ccc3n2S(C)(=O)=O)c1 | – | 50% | –
CS(=O)(=O)Nc1ccc(C(F)(F)F)cc1-c1cc2cc(C(F)(F)F)ccc2n1S(C)(=O)=O | – | 25% | –
Cc1ccc(S(=O)(=O)Nc2ccc(F)cc2-c2cc3cc(F)ccc3n2S(=O)(=O)c2ccc(C)cc2)cc1 | – | 15% | –
CS(=O)(=O)Nc1ccccc1-c1cc2ccccc2n1S(C)(=O)=O | – | 40% | –
CS(=O)(=O)Nc1ccc(Cl)cc1-c1cc2cc(Cl)ccc2n1S(C)(=O)=O | – | 45% | –
Cc1ccc(S(=O)(=O)Nc2ccccc2-c2cc3ccccc3n2S(=O)(=O)c2ccc(C)cc2)cc1 | – | 12% | –
CS(=O)(=O)Nc1ccc(F)cc1-c1cc2cc(F)ccc2n1S(C)(=O)=O | 17 µM | 69% | Dose-dependent effect
CS(=O)(=O)Nc1ccc([N+](=O)[O-])cc1-c1cc2cc([N+](=O)[O-])ccc2n1S(C)(=O)=O | – | 15% | –
Cc1ccc(NS(C)(=O)=O)c(-c2cc3cc(C)ccc3n2S(C)(=O)=O)c1 | – | 42% | –
